Assay results published in article PMC3858179 (Journal of medicinal chemistry, 2008).
Where two headings read alike, the source gives them in different places.

Experiments:
[1] = tested on: human CCRF-CEM leukemia cells; conditions: read-out: EC50 growth of human CCRF-CEM leukemia cells in culture; cited from earlier work
NCI-H460 = conditions: read-out: GI50 NCI-H460; Nonsmall Cell Lung Cancer; cited from earlier work
ACHN = conditions: read-out: GI50 ACHN; Renal Cancer; cited from earlier work
SW-620 [2] = conditions: read-out: GI50 SW-620; Colon Cancer; cited from earlier work
CAKI-1 = conditions: read-out: GI50 CAKI-1; Renal Cancer; cited from earlier work
PC-3 = conditions: read-out: GI50 PC-3; Prostrate Cancer; cited from earlier work
K-562 = conditions: read-out: GI50 K-562; Leukemia; cited from earlier work
HT29 = conditions: read-out: GI50 HT29; Colon Cancer; cited from earlier work
RPMI-8226 = conditions: read-out: GI50 RPMI-8226; Leukemia; cited from earlier work
60 tumor cell lines [3] = conditions: in 11 of the 60 tumor cell lines evaluated; cited from earlier work
HCT 15 [4] = conditions: read-out: GI50 HCT 15; Colon Cancer; cited from earlier work
U251 = conditions: read-out: GI50 U251; Central Nervous System Cancer; cited from earlier work
MOLT-4 = conditions: read-out: GI50 MOLT-4; Leukemia; cited from earlier work
SF268 = conditions: read-out: GI50 SF268; Central Nervous System Cancer; cited from earlier work
MCF-7 = conditions: read-out: GI50 MCF-7; Breast Cancer; cited from earlier work
HL-60 × (TB) = conditions: read-out: GI50 HL-60 × (TB); Leukemia; cited from earlier work
CCRF-CEM = conditions: read-out: GI50 CCRF-CEM; Leukemia; cited from earlier work
[5] = tested on: folyl poly-γ-glutamate synthetase (FPGS); conditions: cited from earlier work
human TS = human TS (Homo sapiens, UniProt P04818); assay: Inhibition of isolated human TS; format: biochemical
Sequence of human TS (P04818 whole entry): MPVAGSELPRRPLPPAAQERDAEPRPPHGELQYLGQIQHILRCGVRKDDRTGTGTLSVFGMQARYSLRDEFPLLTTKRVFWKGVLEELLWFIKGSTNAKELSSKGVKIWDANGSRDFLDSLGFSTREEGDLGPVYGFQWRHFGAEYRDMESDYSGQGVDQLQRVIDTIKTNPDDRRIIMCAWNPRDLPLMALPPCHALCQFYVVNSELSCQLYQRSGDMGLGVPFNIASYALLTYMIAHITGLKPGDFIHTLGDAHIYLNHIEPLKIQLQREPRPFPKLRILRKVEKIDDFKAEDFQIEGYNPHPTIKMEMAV

T. gondii DHFR [6] = target: T1, T. gondii DHFR (Toxoplasma gondii, UniProt Q07422); format: biochemical; conditions: 20 compounds jointly assayed, by both protocols (Table 1 and Table 2 conditions)
T1 sequence (Q07422 1-610): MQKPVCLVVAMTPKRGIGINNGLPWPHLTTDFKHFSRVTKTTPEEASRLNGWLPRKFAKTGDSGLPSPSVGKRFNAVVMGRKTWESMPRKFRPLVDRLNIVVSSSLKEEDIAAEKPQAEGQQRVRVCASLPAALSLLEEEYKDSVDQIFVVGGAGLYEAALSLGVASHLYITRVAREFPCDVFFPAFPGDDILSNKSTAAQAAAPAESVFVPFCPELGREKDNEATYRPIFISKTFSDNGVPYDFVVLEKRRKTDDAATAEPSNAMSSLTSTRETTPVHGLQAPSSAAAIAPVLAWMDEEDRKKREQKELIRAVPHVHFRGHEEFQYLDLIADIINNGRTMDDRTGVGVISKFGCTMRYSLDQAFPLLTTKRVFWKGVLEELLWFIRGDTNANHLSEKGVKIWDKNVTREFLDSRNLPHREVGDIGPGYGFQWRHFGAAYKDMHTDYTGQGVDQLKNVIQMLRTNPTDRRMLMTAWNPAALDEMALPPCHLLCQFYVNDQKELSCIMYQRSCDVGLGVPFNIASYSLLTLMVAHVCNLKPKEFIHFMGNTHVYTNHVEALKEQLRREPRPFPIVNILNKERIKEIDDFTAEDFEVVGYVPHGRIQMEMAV

E. coli TS = E. coli TS (Escherichia coli, UniProt P0A884); assay: Inhibition of isolated E. coli TS; format: biochemical; conditions: for % inhibition TS E. coli (number in parenthesis): at the concentration given
Sequence of E. coli TS (P0A884 whole entry): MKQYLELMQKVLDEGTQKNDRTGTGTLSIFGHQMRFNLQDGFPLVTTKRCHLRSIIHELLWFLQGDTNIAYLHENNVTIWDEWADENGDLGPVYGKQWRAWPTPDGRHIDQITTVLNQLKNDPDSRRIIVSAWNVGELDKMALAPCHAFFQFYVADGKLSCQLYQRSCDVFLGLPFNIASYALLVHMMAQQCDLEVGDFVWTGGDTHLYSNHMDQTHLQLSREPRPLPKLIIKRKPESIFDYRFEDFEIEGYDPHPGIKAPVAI

T. gondii TS = T. gondii TS (Toxoplasma gondii, UniProt Q07422); format: biochemical
60 tumor cell lines [7] = assay: NCI in vitro preclinical antitumor screening, 60 tumor cell lines; format: cell-based
HCT 15 [8] = assay: NCI tumor cell growth inhibition, HCT 15; format: cell-based; conditions: Homo sapiens, HCT-15, read-out: GI50 HCT 15
E. coli DHFR = E. coli DHFR (Escherichia coli, UniProt P0ABQ4); assay: Inhibition of isolated E. coli DHFR; format: biochemical
Sequence of E. coli DHFR (P0ABQ4 whole entry): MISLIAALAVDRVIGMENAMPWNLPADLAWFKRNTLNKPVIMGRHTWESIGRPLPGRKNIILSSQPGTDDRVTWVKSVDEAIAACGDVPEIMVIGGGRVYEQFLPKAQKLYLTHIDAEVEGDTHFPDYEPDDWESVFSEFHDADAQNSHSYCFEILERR

human DHFR = target: T2, human DHFR (Homo sapiens, UniProt P00374); assay: Inhibition of isolated human DHFR; format: biochemical
T2 sequence (P00374 1-187): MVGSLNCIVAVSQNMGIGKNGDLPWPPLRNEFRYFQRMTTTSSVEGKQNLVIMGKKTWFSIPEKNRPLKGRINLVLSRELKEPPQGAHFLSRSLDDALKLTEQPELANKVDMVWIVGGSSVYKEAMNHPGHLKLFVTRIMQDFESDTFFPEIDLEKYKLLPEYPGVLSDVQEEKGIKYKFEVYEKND

SW-620 [9] = assay: NCI tumor cell growth inhibition, SW-620; format: cell-based; conditions: Homo sapiens, SW-620, read-out: GI50 SW-620
T. gondii DHFR [10] = target: T1, T. gondii DHFR; format: biochemical

Structure (SMILES)	IC50 (E. coli TS)	% inhibition TS E. coli (number in parenthesis) (E. coli TS)	other results
Cc1c(Sc2ccc(C(=O)N[C@@H](CCC(=O)O)C(=O)O)cc2)[nH]c2nc(N)nc(N)c12 [Compound 1]	–	–	EC50 [1]: 190 nM; GI50 (NCI-H460): 631 nM; GI50 (ACHN): 24200 nM; GI50 (SW-620 [2]): 124 nM; GI50 (CAKI-1): > 100000 nM; GI50 (PC-3): 43.6 nM; GI50 (K-562): 29.5 nM; GI50 (HT29): 160 nM; GI50 (RPMI-8226): < 10 nM; GI50 (60 tumor cell lines [3]): ≤ 100 nM; GI50 (HCT 15 [4]): 59500 nM; GI50 (U251): 824 nM; GI50 (MOLT-4): < 10 nM; GI50 (SF268): 74700 nM; GI50 (MCF-7): > 100000 nM; GI50 (HL-60 × (TB)): 43.5 nM; GI50 (CCRF-CEM): 221 nM; FPGS substrate activity [5]: reasonable
CCCc1c(Sc2ccc(C(=O)N[C@@H](CCC(=O)O)C(=O)O)cc2)[nH]c2nc(N)nc(N)c12 [Compound 3, N-[4-[(2,4-Diamino-5-propyl-7H-pyrrolo[2,3-d]pyrimidin-6-yl)sulfanyl]benzoyl]-L-glutamic Acid]	–	–	inhibition of hTS, in words (human TS): poor inhibitor; potency rank against T. gondii DHFR, in words (T. gondii DHFR [6]): three most potent compounds; inhibition of E. coli TS, in words (E. coli TS): poor inhibitor; inhibition of T. gondii TS, in words (T. gondii TS): moderate inhibition; GI50 (60 tumor cell lines [7]): < 1000 nM; GI50 (60 tumor cell lines [7]; read-out: GI50 tumor cells in culture): ≤ 100 nM; GI50 (HCT 15 [8]): > 100000 nM; inhibition of E. coli DHFR, in words (E. coli DHFR): good inhibitor; inhibition of hDHFR, in words (human DHFR): good inhibitor; GI50 (SW-620 [9]): 1210 nM; inhibition of T. gondii DHFR, in words (T. gondii DHFR [10]): good inhibitor
CCCc1c(Sc2c(Cl)cccc2Cl)[nH]c2nc(N)nc(N)c12 [Compound 11, 2,4-Diamino-5-propyl-6-(2′,6′-dichlorophenylsulfanyl)-7H-pyrrolo[2,3-d]pyrimidine]	> 22000 nM	0%	–
CCCc1c(Sc2c(C)cccc2C)[nH]c2nc(N)nc(N)c12 [Compound 12, 2,4-Diamino-5-propyl-6-(2′,6′-dimethylphenylsulfanyl)-7H-pyrrolo[2,3-d] pyrimidine]	> 24000 nM	0%	–
CCCc1c(Sc2ccccc2)[nH]c2nc(N)nc(N)c12 [Compound 13, 2,4-Diamino-5-propyl-6-(phenylsulfanyl)-7H-pyrrolo[2,3-d]py-rimidine]	> 14000 nM	0%	–
CCCc1c(Sc2ccc(OC)cc2)[nH]c2nc(N)nc(N)c12 [Compound 14, 2,4-Diamino-5-propyl-6-(4′-methoxyphenylsulfanyl)-7H-pyr-rolo[2,3-d]pyrimidine]	> 13000 nM	0%	–
CCCc1c(Sc2cc(OC)ccc2OC)[nH]c2nc(N)nc(N)c12 [Compound 15, 2,4-Diamino-5-propyl-6-(2′,5′-dimethoxyphenylsulfanyl)-7H-pyrrolo[2,3-d]pyrimidine]	> 12000 nM	0%	–
CCCc1c(Sc2ccc(OC)c(OC)c2)[nH]c2nc(N)nc(N)c12 [Compound 16, 2,4-Diamino-5-propyl-6-(3′,4′-dimethoxyphenylsulfanyl)-7H-pyrrolo[2,3-d]pyrimidine]	> 11000 nM	0%	–
CCCc1c(Sc2cccc3ccccc23)[nH]c2nc(N)nc(N)c12 [Compound 17, 2,4-Diamino-5-propyl-6-(1′-napthylsulfanyl)-7H-pyrrolo[2,3-d]pyrimidine]	> 12000 nM	0%	–
CCCc1c(Sc2ccc3ccccc3c2)[nH]c2nc(N)nc(N)c12 [Compound 18, 2,4-Diamino-5-propyl-6-(2′-napthylsulfanyl)-7H-pyrrolo[2,3-d]pyrimidine]	> 12000 nM	0%	–
CC(C)c1c(Sc2c(Cl)cccc2Cl)[nH]c2nc(N)nc(N)c12 [Compound 19, 2,4-Diamino-5-isopropyl-6-(2′,6′-dichlorophenylsulfanyl)-7H-pyrrolo[2,3-d]pyrimidine]	> 2200 nM	0%	–
Cc1cccc(C)c1Sc1[nH]c2nc(N)nc(N)c2c1C(C)C [Compound 20, 2,4-Diamino-5-isopropyl-6-(2′,6′-dimethylphenylsulfanyl)-7H-pyrrolo[2,3-d] pyrimidine]	> 13000 nM	0%	–
CC(C)c1c(Sc2ccccc2)[nH]c2nc(N)nc(N)c12 [Compound 21, 2,4-Diamino-5-isopropyl-6-(phenylsulfanyl)-7H-pyrrolo[2,3-d]pyrimidine]	> 2700 nM	0%	–
COc1ccc(Sc2[nH]c3nc(N)nc(N)c3c2C(C)C)cc1 [Compound 22, 2,4-Diamino-5-isopropyl-6-(4′-methoxyphenylsulfanyl)-7H-pyrrolo[2,3-d]pyrimidine]	> 2500 nM	0%	–
COc1ccc(OC)c(Sc2[nH]c3nc(N)nc(N)c3c2C(C)C)c1 [Compound 23, 2,4-Diamino-5-isopropyl-6-(2′,5′-dimethoxyphenylsulfanyl)-7H-pyrrolo[2,3-d]pyrimidine]	> 2300 nM	0%	potency rank against T. gondii DHFR, in words (T. gondii DHFR [6]): among the six least potent compounds
COc1ccc(Sc2[nH]c3nc(N)nc(N)c3c2C(C)C)cc1OC [Compound 24, 2,4-Diamino-5-isopropyl-6-(3′,4′-dimethoxyphenylsulfanyl)-7H-pyrrolo[2,3-d]pyrimidine]	> 2300 nM	0%	potency rank against T. gondii DHFR, in words (T. gondii DHFR [6]): among the six least potent compounds
CC(C)c1c(Sc2cccc3ccccc23)[nH]c2nc(N)nc(N)c12 [Compound 25, 2,4-Diamino-5-isopropyl-6-(1′-napthylsulfanyl)-7H-pyrrolo[2,3-d]pyrimidine]	> 12000 nM	0%	–
CC(C)c1c(Sc2ccc3ccccc3c2)[nH]c2nc(N)nc(N)c12 [Compound 26, 2,4-Diamino-5-isopropyl-6-(2′-napthylsulfanyl)-7H-pyrrolo[2,3-d]pyrimidine]	> 2400 nM	0%	–
CC(C)c1c(Sc2ccc(Cl)c(Cl)c2)[nH]c2nc(N)nc(N)c12 [Compound 27, 2,4-Diamino-5-isopropyl-6-(3′,4′-dichlorophenylsulfanyl)-7H-pyrrolo[2,3-d]pyrimidine]	> 2300 nM	0%	potency rank against T. gondii DHFR, in words (T. gondii DHFR [6]): among the six least potent compounds
CN(Cc1cnc2nc(N)nc(N)c2n1)c1ccc(C(=O)N[C@@H](CCC(=O)O)C(=O)O)cc1 [MTX, methotrexate, reference compound]	–	–	EC50 [1]: 12.5 nM; potency rank against T. gondii DHFR, in words (T. gondii DHFR [6]): three most potent compounds
